Columns and labels:
Aorta [1] = experiment: Vasorelaxant activity in Sprague-Dawley rat endothelium thoracic aortic ring assessed as inhibition of phenylephrine-induced submaximal contraction measured after 5 mins
Aorta [2] = experiment: Vasorelaxant activity in Sprague-Dawley rat endothelium thoracic aortic ring assessed as inhibition of phenylephrine-induced submaximal contraction at 180 uM measured after 5 mins; format: functional

Row | Compound | IC50 (Aorta [1]) [µM] | inhibition at 180 µM (Aorta [2]) [%]
1 | OC/C=C/c1cccc(Nc2cnc3ccccc3n2)c1 | 136 | 78.6
2 | O=C(O)/C=C/c1cccc(Nc2ccc3ccccc3n2)c1 | 161 | 55.9
